The values below come from patent US20210196719A1, “USE OF CDK4/6 INHIBITOR IN COMBINATION WITH EGFR INHIBITOR IN THE PREPARATION OF MEDICAMENT FOR TREATING TUMOR DISEASES” (JIANGSU HENGRUI MEDICINE CO., LTD., priority 2018, published 2021).

Read-outs that look alike come from different tables or passages of the source.

Series [1] deals with human non-small cell lung adenocarcinoma cells (NCI-H1975). Nature of the series: Proliferation inhibition of NCI-H1975 cells (SRB method, 7 days). In kind it is cell-based. The conditions noted are these: 168 h, read-out: Inhibition rate (%).
For series [2] the following is noted: mouse, in vivo.
Series [3] concerns human lung cancer NCI-H1975 transplanted tumor. The series is described as follows: Human lung cancer NCI-H1975 transplanted tumor model of nude mice. The note with it: for Tumor volume (mm^3) D 1: D 1 (at grouping); for Tumor volume (mm^3) D 1 / Tumor weight / RTV (relative tumor volume) / Tumor volume (mm^3) D 22: x ± SE; for Tumor weight: D 22, after sacrifice; for T/C(%) (relative tumor growth rate): TRTV/CRTV; for RTV (relative tumor volume): Vt/V0; for Tumor volume (mm^3) D 22: intragastric q.d. 21 days, gefitinib 30, drug A 100(50), drug B 5 mg/kg.

The nature of series [4]: Body weight of nude mice in the NCI-H1975 transplanted tumor study. The conditions noted are these: x ± SE.

Take `C=CC(=O)Nc1cc(Nc2nccc(-c3cn(C4CC4)c4ccccc34)n2)c(OC)cc1N(C)CCN(C)C` [Drug B]: the inhibition at 0.005 µM in series [1] (Drug B alone 5 nM) came to 50.3%. The inhibition at 0.01 µM in series [1] (Drug B alone 10 nM) is 53.8%. Besides, the “Average body weight (g) D 1” value in series [2] was 22.8 ± 0.7 g. Further, in series [3], the “Tumor volume (mm^3) D 1” value was 130 ± 44 mm^3 and the “Tumor weight” value amounted to 0.1091 ± 0.0621 g. In series [3] (D 22), the “T/C(%) (relative tumor growth rate)” value worked out at 26.14%, the “RTV (relative tumor volume)” value stood at 1.25±0.53 and the “Tumor volume (mm^3) D 22” value turned out to be 125±58 mm^3. Moreover, the “IR (%) (tumor inhibition percentage)” value in series [3] (D 22, by tumor weight vs control) was 81.69%.
As to `COc1cc2ncnc(Nc3ccc(F)c(Cl)c3)c2cc1OCCCN1CCOCC1` [Gefitinib, gefitinib, reference compound], in series [3], the “Tumor volume (mm^3) D 1” value turned out to be 130 ± 41 mm^3 and the “Tumor weight” value came to 0.4097 ± 0.1605 g. Moreover, in series [3] (D 22), the “T/C(%) (relative tumor growth rate)” value is given as 66.81%, the “RTV (relative tumor volume)” value worked out at 3.18±0.65 and the “Tumor volume (mm^3) D 22” value came out at 477±162 mm^3. Moreover, in series [4] (D 1, n=3), the “Average body weight (g) D 1” value is recorded as 21.8 ± 0.6 g. The “Average body weight (g) D 22” value in series [4] (D 22, intragastric q.d. 21 days, gefitinib 30, drug A 100(50), drug B 5 mg/kg) is given as 24.5 ± 0.8 g.
